The values below come from PubChem BioAssay AID720663 (NMMLSC, 2013).

The source made the active and inactive calls.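 How the source made its calls: active means inhibition above 50% of lysosomal marker LAMP-1 reaching the cell surface; inactive means inhibition below 50%.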

For orientation: inhibition means the drop in the measured response relative to a control, in per cent.

The experiment concerns TALL-104 cells, LAMP-1 externalization, flow cytometry. The experiment is described as follows: inhibitors of lytic granule exocytosis via LAMP-1, confirmation, TALL-104 cells, flow cytometry, CherryPick01 (AID 720663). Conditions: at 30 µM; stronger effect = higher value. A general note: A flow cytometer gives signals particle by particle.
`Cn1sc(=O)c2cc(S(=O)(=O)NC3CC3)ccc21`: the inhibition was 73.2%.
The result for `COc1cccc(-c2cnc3c(NC(C)=O)cc(-c4ccccc4OC)cn23)c1` reads 56.1%; that for `CN1CCN(c2cc(-c3ccccc3)nc3cc(-c4ccc(F)cc4)nn23)CC1`, 99.7%; that for `CCOc1ccc2nc(N(CCCN(C)C)C(=O)c3ccc(S(=O)(=O)N4CCc5ccccc5C4)cc3)sc2c1`, 100%.
On to `O=C(Cn1sc2ccccc2c1=O)Nc1ccc(F)cc1`, for which the inhibition was 51.7%.
`CCOc1ccccc1CNC(=O)C1CCN(c2nnc(C)c3c(C)n(-c4ccc(C)cc4)nc23)CC1`: the inhibition is 99.6%.
The result for `COc1ccc(-n2sc3ccccc3c2=O)cc1` reads 60.1%.
For the compound `CCC(=C(c1ccc(OC)cc1)c1ccc(OC)cc1)c1cn(CC(O)CN2CCN(C)CC2)c2ccccc12` (stereo not given), the inhibition was 14.8% (inactive).
On to `CCCCC[C@@H](C)N1C[C@@H](COCc2ccccc2)Oc2cc(N3CC[C@H](N(C)C)C3)ccc2S1(=O)=O`, for which the inhibition is 95.1%.
As to `COc1cccc(-c2cnc3c(NC(C)=O)cc(-c4ccsc4)cn23)c1`, the inhibition was 53.2%.
The value for `CCCCC[C@@H](C)N1C[C@@H](COCc2ccccc2)Oc2cc(N3CC[C@@H](N(C)C)C3)ccc2S1(=O)=O` was 95.3%; that for `CN1CCN(CCCNC(=O)c2ccc(/C=C3\Sc4ccccc4N(Cc4ccc(F)cc4)C3=O)cc2)CC1` was 4.5% (inactive).
For the compound `COc1cccc(NC(=O)Nc2nc(-c3ccc(OC)c(OC)c3)cs2)c1`, the inhibition is 99.6%.
On to `COc1ccc(-c2cc(NC=O)c3ncc(-c4ccccc4)n3c2)cc1OC`, for which the inhibition was 69.9%.
Turning to `CCN(CC)CCCNc1ccc(-c2nnc(-c3ccc(OCC(C)C)cc3)o2)cn1`, the inhibition was 87.3%.
The value for `CC1=C(C)CS(=O)N(S(=O)(=O)c2ccc(Cl)cc2)C1` (stereo not given) was 99.5%; that for `CCc1ccc(/C=C2/Sc3ccccc3N(CC(=O)NCCCN3CCOCC3)C2=O)cc1` was 36.6% (inactive); that for `O=C1CC(Sc2nnnn2-c2ccccc2)C(=O)N1c1cccc(Cl)c1` (stereo not given) was 89.1%.
`CCOc1ccc2[nH]c3c(N4CCc5ccccc5C4)ncnc3c2c1`: the inhibition was 5.2% (inactive).
On to `COC(=O)[C@]12CCCCC=C1N(Cc1cccc3ccccc13)C(=O)[C@H](CC(=O)NCc1ccc(OC)c(OC)c1)C2`, for which the inhibition is 15.9% (inactive).
Take `O=CNc1cc(-c2ccsc2)cn2c(-c3ccccc3)cnc12`: the inhibition is 52.6%.
On to `CCCCCCSc1cccc(-c2nc3ccccn3c2NCc2ccccc2)c1`, for which the inhibition was -0.5% (inactive).
Turning to `O=S(=O)(c1ccccc1)c1nnn2c1nc(NC1CCN(Cc3ccccc3)CC1)c1cc(Cl)ccc12`, the inhibition is 98.7%.
As to `Cc1ccc(-n2nnc3c(=O)oc4ccccc4c32)cc1`, the inhibition was 98.8%.
The value for `O=C1Nc2ccc(Br)cc2/C1=C/C(=O)c1ccccc1` was 39.4% (inactive).
Turning to `CCOC(=O)c1nnc(-c2ccccc2)nc1Sc1ccccc1Cl`, the inhibition was 4.8% (inactive).
With `COc1ccc(-c2cc(NC=O)c3ncc(-c4cccc(OC)c4)n3c2)cc1`, the inhibition was 82.8%.
Consider `COC(=O)c1c(NC(=O)c2nc3ccccc3s2)sc2c1CC(C)(C)NC2(C)C`, for which the inhibition is 81.5%.
Turning to `Cc1cc(N2CCN(c3nc(-c4ccc([N+](=O)[O-])cc4)cs3)CC2)c2ccccc2n1`, the inhibition was 99.2%.
On to `COC(=O)c1c(NC(=O)c2ccc(C(=O)c3ccccc3)cc2)sc2c1CC(C)(C)NC2(C)C`, for which the inhibition is 39.6% (inactive).
Turning to `N#Cc1c(Nc2ccccc2Cl)s[nH]c1=O`, the inhibition is 95.1%.
In the case of `CN(C)CCNC(=O)c1ccc(-c2cn3c(-c4ccc(Oc5ccccc5)cc4)cnc3cn2)cc1`, the inhibition was 66.8%.
Regarding `CC1COCC(C)N1C1=C(Cl)C(=O)c2ccccc2C1=O` (stereo not given), the inhibition is 99.7%.
Regarding `CCOC(=O)c1c(NC(=O)COc2ccccc2OCC)sc2c1CC(C)(C)NC2(C)C`, the inhibition is 94.7%.
Turning to `O=C(OCc1ccccc1)N(CCCCN(CCCNCc1ccccc1)C(=O)OCc1ccccc1)CCCNCc1ccccc1`, the inhibition was 99.5%.
Turning to `Cc1ccc(S(=O)(=O)n2ccc3c(OCCOCCNCc4ccc(F)cc4)cccc32)cc1`, the inhibition was 85%.
For `O=c1c2ccc(F)cc2sn1-c1ccccc1`, the inhibition is 77.6%.
Take `CCOC(=O)c1c(CSc2ccccc2)n(C)c2cc(Br)c(O)c(CN(C)C)c12`: the inhibition is 25.5% (inactive).
Regarding `COc1ccc(N2C(=O)CC(Sc3nnc(-c4ccccc4)o3)C2=O)cc1` (stereo not given), the inhibition is 92.9%.
The value for `COc1ccc([N+](=O)[O-])cc1Nc1c2ccccc2nc2ccccc12` was 20.4% (inactive).
`OC(CNCC(c1ccc(Cl)cc1Cl)c1c[nH]c2ccccc12)c1ccccc1` (stereo not given): the inhibition was 35.2% (inactive).
Consider `CC(C)CNC(=O)c1c(N)n(Cc2ccc3c(c2)OCO3)c2nc3ccccc3nc12`, for which the inhibition is 21% (inactive).
The value for `O=C(Cn1sc2ccccc2c1=O)NC12CC3CC(CC(C3)C1)C2` was 50% (inactive).
For `CCc1ccc2nc(N(CCCN(C)C)C(=O)c3ccc(S(=O)(=O)N4CCc5ccccc5C4)cc3)sc2c1`, the inhibition is 97.7%.
With `CN(C)CCCNC(=S)NCC(c1ccc(Cl)cc1Cl)c1c[nH]c2ccccc12` (stereo not given), the inhibition is 24% (inactive).
`O=C(CN1C(=O)/C(=C\c2cccc(Br)c2)Oc2ccccc21)NCCCN1CCOCC1`: the inhibition is 77%.
For the compound `Cn1cncc1C#Cc1c(-c2ccc(S(C)(=O)=O)cc2)sc2ccccc12`, the inhibition is 17% (inactive).
The value for `c1ccc(CNc2nc(NCC3CC3)nc3cc(-c4ccccc4)sc23)cc1` was 97.8%; that for `Cc1cc(C)c2nc(C)cc(N/N=C/c3ccc(O)cc3)c2c1` was 100%; that for `COc1cc(-c2coc3c(C(=O)NCc4ccc(OC)c(OC)c4)cccc23)ccc1O` was 29.4% (inactive).
For `COc1ccccc1CNc1nc(NCc2ccc(C(C)C)cc2)c2sccc2n1`, the inhibition was 78.5%.
Regarding `N#Cc1ccc(NC(=O)Nc2ccc(Oc3ccc(NC(=O)Nc4ccc(C#N)cc4)cc3)cc2)cc1`, the inhibition was 40.4% (inactive).
As for `CCCCn1c(=N)n(CC(=O)c2ccc(Br)s2)c2ccccc21`, the inhibition is 100%.
In the case of `O=C1C=CC(=O)N1N(c1ccccc1)c1ccccc1`, the inhibition is 45.4% (inactive).
For the compound `CCCS(=O)(=O)Nc1ccc(Nc2c3ccccc3nc3ccccc23)c(OC)c1`, the inhibition was 99.7%.
Regarding `O=C(Nc1ccc(F)cc1)c1nc(S(=O)(=O)Cc2ccccc2)ncc1Cl`, the inhibition is 98.8%.
The result for `O=c1c2ccccc2sn1-c1ccccc1F` reads 44% (inactive); that for `CCCNC(=O)Cn1sc2nc(C)cc(C)c2c1=O`, 41.7% (inactive); that for `CCc1nc2ccc(C(=O)NC3CCN(Cc4ccccc4)CC3)cn2c1N(C)Cc1cc2ccccc2s1`, 22.5% (inactive).
Consider `CN(c1ccccc1)S(=O)(=O)c1cccc(C(=O)NCCc2c[nH]c3ccccc23)c1`, for which the inhibition was 13.7% (inactive).
Consider `CCOc1ccc2nc(C)cc(Nc3cccc([N+](=O)[O-])c3)c2c1`, for which the inhibition was 100%.
As for `CC1(C(=O)OCC(=O)Nc2nc(-c3ccc(F)c(F)c3)cs2)CC1(Cl)Cl` (stereo not given), the inhibition was -10.8% (inactive).
Turning to `COc1cccc(-c2cnc3c(NC=O)cc(-c4ccccc4)cn23)c1`, the inhibition was 38.8% (inactive).
Turning to `CC1=NOC(=O)/C1=C/c1ccc(-c2ccc(Cl)cc2)o1`, the inhibition is 84.6%.
Take `CC(=O)Nc1ccc2sn(-c3ccccc3)c(=O)c2c1`: the inhibition is 26.4% (inactive).
Regarding `CCOC(=O)c1cc(-c2csc(Nc3c(C)cc(C)cc3C)n2)on1`, the inhibition was 70.1%.
For the compound `CCCCC[C@@H](C)N1C[C@H](COCc2ccccc2)Oc2cc(N3CC[C@@H](N(C)C)C3)ccc2S1(=O)=O`, the inhibition is 93.7%.
Turning to `Nc1c(C(=O)NCc2ccc(F)cc2)c2nc3ccccc3nc2n1CCCN1CCOCC1`, the inhibition was 58.3%.
Consider `O=c1c2ccccc2sn1-c1ccccc1`, for which the inhibition was 79.9%.
`CCOc1cc(CNCCc2ccc(S(N)(=O)=O)cc2)ccc1OCc1ccc(Cl)cc1`: the inhibition is 99.8%.
For `CC(C)(c1ccccc1)c1ccc(OCC(O)CNC2CCN(Cc3ccccc3)CC2)cc1` (stereo not given), the inhibition was 97.6%.
For the compound `Cc1ccc(Nc2nc(NCc3ccco3)c3ccccc3n2)cc1`, the inhibition is 58.7%.
The value for `Fc1ccc(/C=C\c2nccc3c2[nH]c2ccccc23)cc1` was 98.7%.
As to `CC(=O)Nc1ccc2c(=O)n(-c3ccccc3)sc2c1`, the inhibition was 39.8% (inactive).
For the compound `COc1ccccc1CNc1nc(NCc2ccc3occc3c2)c2sccc2n1`, the inhibition is 37.5% (inactive).
